Laboratory results from patent US9493430B2, “Biaryl- or heterocyclic biaryl-substituted cyclohexene derivative compounds as CETP inhibitors” (CHONG KUN DANG PHARMACEUTICAL CORP., priority 2013, dated 2016).

Assays:
[1] = system: patients; conditions: patients administered with Anacetrapib; cited from earlier work
[2] = system: human adrenal cortical tumor cells; conditions: cited from earlier work
[3] = system: patients; conditions: cited from earlier work
[4] = system: H295R cell line (human adrenal cortical tumor cells); format: cell-based; conditions: 24 hours, 100 nM of torcetrapib, 1 μM of test compounds
Protocol: Evaluation of the Ability of CETP Inhibitor to Secrete Blood Pressure-Hormone
Based on this, the secretion of blood pressure-increasing hormones from human adrenal cortical tumor cells was evaluated. The cell line H295R was purchased from ATCC (CRL-2128) and cultured in DMEM/F-12 medium (1% ITS, 2.5% Nu-serum). The H295R cell line was dispensed into a 24-well plate at a cell density of 1×10^5/well, and stabilized for 24 hours, after which the cells were starved for 24 hours using serum-free DMEM/F-12. Then, the cells were treated with each of 100 nM of torcetrapib and 1 μM of test compounds 554, 557, 574, 584, 586, 593, 618, 643, 650, 661, 681 and 695. At 24 hours after treatment with the drug or the compound, the supernatant was taken and stored at −20° C. The supernatant stored at −20° C. was thawed, and the amounts of aldosterone and cortisol secreted from the cells were measured using an aldosterone EIA kit (Cayman-10004377) and cortisol EIA kit (Cayman-500360).
2. Statistical Processing
(§1) All test results were expressed as Mean±SEM, and to evaluate the effect of each test group, each test group was compared with the control group using one-way ANOVA test (Dunnett's test, p<0.001).

[5] = system: patients; conditions: human, in vivo; cited from earlier work
[6] = target: CETP (Homo sapiens (Human), UniProt P11597); assay: Test for inhibition of cholesteryl ester transfer (in vitro); format: biochemical; conditions: human plasma as CETP source, LDL from healthy persons as acceptor, rHDL-agarose donor, 37° C.
Chain of CETP (P11597 18-493): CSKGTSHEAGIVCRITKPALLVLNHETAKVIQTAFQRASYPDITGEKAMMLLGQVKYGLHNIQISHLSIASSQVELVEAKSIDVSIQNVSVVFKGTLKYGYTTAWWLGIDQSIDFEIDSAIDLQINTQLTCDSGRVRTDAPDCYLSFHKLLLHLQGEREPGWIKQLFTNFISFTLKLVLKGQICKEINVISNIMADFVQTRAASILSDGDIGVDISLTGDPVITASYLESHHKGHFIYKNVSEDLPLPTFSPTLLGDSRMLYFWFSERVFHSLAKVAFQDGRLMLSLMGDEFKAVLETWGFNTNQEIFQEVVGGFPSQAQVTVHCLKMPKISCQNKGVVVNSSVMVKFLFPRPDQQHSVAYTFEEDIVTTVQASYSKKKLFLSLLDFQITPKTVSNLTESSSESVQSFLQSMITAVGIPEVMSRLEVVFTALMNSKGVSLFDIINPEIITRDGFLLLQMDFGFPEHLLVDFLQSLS
Text: Test for Inhibition of Cholesteryl Ester Transfer (In Vitro)
1. Construction of Cholesteryl Ester Donor
To construct a cholesteryl ester donor to be used in the test, radiolabeled recombinant HDL containing […] (GE healthcare, TRK886, 3.5 μCi/mg of apoA-1) and apoA-1 was synthesized. Then, rHDL-agarose having the recombinant HDL immobilized thereon by CNBr-activated Sepharose 4B (Amersham Biosciences, Sweden) resin was used in the test.
2. Cholesteryl Ester Transfer Test
As a protein source for cholesteryl ester transfer, plasma from healthy persons was used, and as a cholesteryl ester receptor, LDL from healthy persons was used. Samples were treated with each test compound to final concentrations of 16, 80, 400, 2000 and 10000 nM and analyzed in duplicate. For the cholesteryl ester transfer test, 20 μl of plasma, 50 μl of LDL (0.25 mg/ml) and 50 μl of rHDL-agarose (0.25 mg/ml) were added, and a solution containing a test compound was added, followed by reaction at 37° C. Then, centrifugation was performed at 4° C. for 3 minutes to stop the reaction, and 150 μl of the supernatant was taken and transferred to a 96-well plate for radioactivity measurement, and the radioactivity of the plate was measured with a beta-ray detector.
(§2) 3. Statistical Processing
The ratio of [^3H]-cholesteryl oleate from HDL to LDL was calculated and used as a result value, and from the result value, IC50 value was calculated using GraphPad Prism 5.0.

[7] = system: golden Syrian hamsters; assay: Test for anti-hyperlipidemic effect in hamsters (in vivo); conditions: Mesocricetus auratus, po, 3 mg/kg orally for 5 days, blood 4 hours after final administration, vs control; for inhibition in vivo at 3 mg/kg: read-out: Decrease in LDL-c (%); for change in vivo at 3 mg/kg: read-out: Increase in HDL-c (%)
Text: Test for Anti-Hyperlipidemic Effect in Hamsters (In Vivo)
In this test, 8-week-old male golden Syrian hamsters were used. The breeding room was maintained at constant temperature and constant humidity and a 12-hr light/12-hr dark cycle. The animals were allowed access to feed and water ad libitum.
2. Anti-Hyperlipidemic Test in Hamsters
The test animals were acclimated for 1 week before use in the test. The test animals were divided according to body weight into several groups, each consisting of 5-8 animals, and were then administered orally with a dose of 3 mg/kg. A solvent control and a CETP inhibitor were dissolved in imwitor 742: tween 80 (1:1) and administered orally for 5 days, and at 4 hours after the final administration, blood was collected from the heart. The collected blood was centrifuged at 3000 rpm for 15 minutes, and the separated serum was measured for HDL-Cholesterol (Biosystem) and LDL-Cholesterol (Biosystem) using a biochemical analysis instrument (ILab 300 plus, Instrumentation Laboratory).
as §2, §1

[8] = system: patients; conditions: human, in vivo; cited from earlier work; remark: listed apart in the source

Q: Which results are given for `COc1cc(F)c(C(C)C)cc1-c1ccc(C(F)(F)F)cc1CN1C(=O)O[C@H](c2cc(C(F)(F)F)cc(C(F)(F)F)c2)[C@@H]1C` [Anacetrapib]?
A: HDL-c level increase [1]: 138%; LDL-c level decrease [1]: 40%

Q: Which secretion of aldosterone [2] does the source give for `CCOC(=O)N1c2ccc(C(F)(F)F)cc2[C@@H](N(Cc2cc(C(F)(F)F)cc(C(F)(F)F)c2)C(=O)OC)C[C@H]1CC` [torcetrapib] here?
A: The secretion of aldosterone was “increased the secretion of aldosterone and cortisol”.

Q: And the secretion of cortisol [2]?
A: Its secretion of cortisol is “increased the secretion of aldosterone and cortisol”.

Q: And the “morbidity rate and mortality rate” value ([3]; combination of torcetrapib and atorvastatin compared to atorvastatin alone)?
A: Its value is “increase”.

Q: And the blood pressure ([3]; human, in vivo)?
A: Its blood pressure is “causes an increase in blood pressure”.

Q: What about the mortality rate ([3]; human, in vivo) of the same molecule?
A: Its mortality rate is “an increase in mortality rate”.

Q: And the secretion of aldosterone [4]?
A: The secretion of aldosterone was “increased the secretion of the two hormones”.

Q: What about the secretion of cortisol [4] of the same molecule?
A: Its secretion of cortisol is “increased the secretion of the two hormones”.

Q: With `Cc1cc(C)c2c(c1)[C@@H](N(Cc1cc(C(F)(F)F)cc(C(F)(F)F)c1)c1nnn(C)n1)CCCN2C[C@H]1CC[C@H](C(=O)O)CC1` [Evacetrapib] as the molecule, how does the HDL-c levels [5] read?
A: The HDL-c levels was “increases HDL-c levels in a dose-dependent manner”.

Q: And the “side effects such as blood pressure elevation” value [5]?
A: The value was “does not cause side effects such blood pressure elevation”.

Q: Which IC50 [6] does the source give for `COc1ncc(-c2ccc(C(=O)O)cc2Cl)cc1C1=C(CN2C(=O)O[C@H](c3cc(C(F)(F)F)cc(C(F)(F)F)c3)[C@@H]2C)CC(C)(C)CC1` [Compound 584, 4-(3-(2-(((4S,5R)-5-(3,5-bis(trifluoromethyl)phenyl)-4-methyl-2-oxooxazolidin-3-yl)methyl)-4,4-dimethylcyclohex-1-enyl)-2-methoxypyridin-5-yl)-3-chlorobenzoic acid] here?
A: The IC50 was 5.3 nM.

Q: What about the inhibition in vivo at 3 mg/kg [7] of the same molecule?
A: The inhibition in vivo at 3 mg/kg was 40%.

Q: What about the change in vivo at 3 mg/kg [7] of the same molecule?
A: Its change in vivo at 3 mg/kg is 46%.

Q: For `COc1ncc(-c2ccc(C(=O)O)cc2F)cc1C1=C(CN2C(=O)O[C@H](c3cc(C(F)(F)F)cc(C(F)(F)F)c3)[C@@H]2C)CC(C)(C)CC1` [Compound 586, 4-(3-(2-(((4S,5R)-5-(3,5-bis(trifluoromethyl)phenyl)-4-methyl-2-oxooxazolidin-3-yl)methyl)-4,4-dimethylcyclohex-1-enyl)-2-methoxypyridin-5-yl)-3-fluorobenzoic acid], which IC50 [6] is on record?
A: Its IC50 is 13 nM.

Q: And the inhibition in vivo at 3 mg/kg [7]?
A: Its inhibition in vivo at 3 mg/kg is 34%.

Q: And the change in vivo at 3 mg/kg [7]?
A: Its change in vivo at 3 mg/kg is 37%.

Q: Which “effects (efficacy)” value [8] does the source give for `CCC(CC)CC1(C(=O)Nc2ccccc2SC(=O)C(C)C)CCCCC1` [Dalcetrapib] here?
A: Its value is “insufficient effects”.

Q: And the side effects [8]?
A: The side effects was “does not have the side effects of Torcetrapib”.
